Assay results taken from PubChem BioAssay AID2060496 (Molecular Pharmacology Branch, DTP, NCI, 2025).

Tested on: 276233-004-R-J1-PDC complex spheroid viability
Assay: Anticancer human tumor 276233-004-R-J1-PDC patient-derived colon adenocarcinoma cell line growth inhibition [GQUAD]
Details: for IC50: curve of first compound; for viability, T/C: stronger effect = lower value
Procedure, shortened: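 Viability of tumor cells grown as complex spheroids with endothelial and stromal cells, exposed to drug combinations. Top concentration at or near clinical Cmax (else 10 microM), diluted in half-log increments.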

[1] = second compound 0.0316 µM, first compound 0.0316 µM
[2] = second compound 0.0316 µM, first compound 0.1 µM
[3] = second compound 0.0316 µM, first compound 0.316 µM
[4] = second compound 0.0316 µM, first compound 1 µM
[5] = second compound 0.0316 µM, first compound 3.16 µM
[6] = second compound 0.0316 µM, first compound 10 µM
[7] = second compound 0.1 µM, first compound 0.0316 µM
[8] = second compound 0.1 µM, first compound 0.1 µM
[9] = second compound 0.1 µM, first compound 0.316 µM
[10] = second compound 0.1 µM, first compound 1 µM
[11] = second compound 0.1 µM, first compound 3.16 µM
[12] = second compound 0.1 µM, first compound 10 µM
[13] = second compound 0.316 µM, first compound 0.0316 µM
[14] = second compound 0.316 µM, first compound 0.1 µM
[15] = second compound 0.316 µM, first compound 0.316 µM
[16] = second compound 0.316 µM, first compound 1 µM
[17] = second compound 0.316 µM, first compound 3.16 µM
[18] = second compound 0.316 µM, first compound 10 µM
[19] = second compound 1 µM, first compound 0.0316 µM
[20] = second compound 1 µM, first compound 0.1 µM
[21] = second compound 1 µM, first compound 0.316 µM
[22] = second compound 1 µM, first compound 1 µM
[23] = second compound 1 µM, first compound 3.16 µM
[24] = second compound 1 µM, first compound 10 µM
[25] = second compound 3.16 µM, first compound 0.0316 µM
[26] = second compound 3.16 µM, first compound 0.1 µM
[27] = second compound 3.16 µM, first compound 0.316 µM
[28] = second compound 3.16 µM, first compound 1 µM
[29] = second compound 3.16 µM, first compound 3.16 µM
[30] = second compound 3.16 µM, first compound 10 µM
[31] = second compound 10 µM, first compound 0.0316 µM
[32] = second compound 10 µM, first compound 0.1 µM
[33] = second compound 10 µM, first compound 0.316 µM
[34] = second compound 10 µM, first compound 1 µM
[35] = second compound 10 µM, first compound 3.16 µM
[36] = second compound 10 µM, first compound 10 µM
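Further: spheroids exposed to drugs for seven days.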
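Wherever viability, T/C is given: 100% = DMSO vehicle control viability.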

## Cc1cccc(N(C)C(=O)C2C(O)CCN2c2nc(C)cc(C(F)(F)F)c2C#N)c1 (stereo not drawn) + CN(C)c1ccc(Nc2c3ccc(NC(=O)CCN4CCCC4)cc3nc3cc(NC(=O)CCN4CCCC4)ccc23)cc1
Second compound 0.0316 µM
  IC50: > 10 µM
Second compound 0.1 µM
  IC50: > 10 µM
Second compound 0.316 µM
  IC50: > 10 µM
Second compound 1 µM
  IC50: > 10 µM
Second compound 3.16 µM
  IC50: > 10 µM
Second compound 10 µM
  IC50: < 0.0316 µM
[1]
  viability, T/C: 77.3%
[2]
  viability, T/C: 74.1%
[3]
  viability, T/C: 86.7%
[4]
  viability, T/C: 97.1%
[5]
  viability, T/C: 98.1%
[6]
  viability, T/C: 101%
[7]
  viability, T/C: 96.8%
[8]
  viability, T/C: 98.1%
[9]
  viability, T/C: 89.5%
[10]
  viability, T/C: 89.2%
[11]
  viability, T/C: 86.5%
[12]
  viability, T/C: 96%
[13]
  viability, T/C: 71.2%
[14]
  viability, T/C: 75.4%
[15]
  viability, T/C: 73.2%
[16]
  viability, T/C: 50.7%
[17]
  viability, T/C: 60.5%
[18]
  viability, T/C: 68.1%
[19]
  viability, T/C: 57.3%
[20]
  viability, T/C: 47.1%
[21]
  viability, T/C: 63.1%
[22]
  viability, T/C: 57.6%
[23]
  viability, T/C: 51.2%
[24]
  viability, T/C: 64.9%
[25]
  viability, T/C: 51%
[26]
  viability, T/C: 49.3%
[27]
  viability, T/C: 50.6%
[28]
  viability, T/C: 55.9%
[29]
  viability, T/C: 65.8%
[30]
  viability, T/C: 68.7%
[31]
  viability, T/C: 39.7%
[32]
  viability, T/C: 51.5%
[33]
  viability, T/C: 41.2%
[34]
  viability, T/C: 72.6%
[35]
  viability, T/C: 63.1%
[36]
  viability, T/C: 54.8%

## Cn1ncnc1[C@H]1c2n[nH]c(=O)c3cc(F)cc(c23)N[C@@H]1c1ccc(F)cc1 + Cc1cnc(CNC(=O)c2c(=O)c3ccc(N4CCCN(C)CC4)nc3n3c2sc2ccccc23)cn1
Second compound 0.0316 µM
  IC50: > 0.316 µM
Second compound 0.1 µM
  IC50: > 0.316 µM
Second compound 0.316 µM
  IC50: > 0.316 µM
Second compound 1 µM
  IC50: > 0.316 µM
Second compound 3.16 µM
  IC50: > 0.316 µM
Second compound 10 µM
  IC50: > 0.316 µM
Second compound 0.0316 µM, first compound 0.000999 µM
  viability, T/C: 94.8%
Second compound 0.0316 µM, first compound 0.00316 µM
  viability, T/C: 72.2%
Second compound 0.0316 µM, first compound 0.00999 µM
  viability, T/C: 79.9%
[1]
  viability, T/C: 82.6%
Second compound 0.0316 µM, first compound 0.0999 µM
  viability, T/C: 82.9%
[3]
  viability, T/C: 83.8%
Second compound 0.1 µM, first compound 0.000999 µM
  viability, T/C: 92.2%
Second compound 0.1 µM, first compound 0.00316 µM
  viability, T/C: 85.1%
Second compound 0.1 µM, first compound 0.00999 µM
  viability, T/C: 73%
[7]
  viability, T/C: 78.3%
Second compound 0.1 µM, first compound 0.0999 µM
  viability, T/C: 89.2%
[9]
  viability, T/C: 87.3%
Second compound 0.316 µM, first compound 0.000999 µM
  viability, T/C: 78.6%
Second compound 0.316 µM, first compound 0.00316 µM
  viability, T/C: 91.9%
Second compound 0.316 µM, first compound 0.00999 µM
  viability, T/C: 86.4%
[13]
  viability, T/C: 82.8%
Second compound 0.316 µM, first compound 0.0999 µM
  viability, T/C: 80.8%
[15]
  viability, T/C: 78.2%
Second compound 1 µM, first compound 0.000999 µM
  viability, T/C: 70.3%
Second compound 1 µM, first compound 0.00316 µM
  viability, T/C: 65.9%
Second compound 1 µM, first compound 0.00999 µM
  viability, T/C: 80.1%
[19]
  viability, T/C: 74.4%
Second compound 1 µM, first compound 0.0999 µM
  viability, T/C: 88.5%
[21]
  viability, T/C: 69.2%
Second compound 3.16 µM, first compound 0.000999 µM
  viability, T/C: 69.5%
Second compound 3.16 µM, first compound 0.00316 µM
  viability, T/C: 71.5%
Second compound 3.16 µM, first compound 0.00999 µM
  viability, T/C: 61.2%
[25]
  viability, T/C: 67.5%
Second compound 3.16 µM, first compound 0.0999 µM
  viability, T/C: 70.7%
[27]
  viability, T/C: 62.8%
Second compound 10 µM, first compound 0.000999 µM
  viability, T/C: 68.4%
Second compound 10 µM, first compound 0.00316 µM
  viability, T/C: 59.1%
Second compound 10 µM, first compound 0.00999 µM
  viability, T/C: 64.8%
[31]
  viability, T/C: 71.8%
Second compound 10 µM, first compound 0.0999 µM
  viability, T/C: 66.2%
[33]
  viability, T/C: 63.5%

## O=C(c1cc(Cc2n[nH]c(=O)c3ccccc23)ccc1F)N1CCN(C(=O)C2CC2)CC1 + CN(C)c1ccc(Nc2c3ccc(NC(=O)CCN4CCCC4)cc3nc3cc(NC(=O)CCN4CCCC4)ccc23)cc1
Second compound 0.0316 µM
  IC50: > 10 µM
Second compound 0.1 µM
  IC50: > 10 µM
Second compound 0.316 µM
  IC50: > 10 µM
Second compound 1 µM
  IC50: > 10 µM
Second compound 3.16 µM
  IC50: > 10 µM
Second compound 10 µM
  IC50: < 0.0316 µM
[1]
  viability, T/C: 76.4%
[2]
  viability, T/C: 83.4%
[3]
  viability, T/C: 91.8%
[4]
  viability, T/C: 125%
[5]
  viability, T/C: 77.4%
[6]
  viability, T/C: 82%
[7]
  viability, T/C: 98.9%
[8]
  viability, T/C: 100%
[9]
  viability, T/C: 97.6%
[10]
  viability, T/C: 84.4%
[11]
  viability, T/C: 76%
[12]
  viability, T/C: 88.1%
[13]
  viability, T/C: 75.5%
[14]
  viability, T/C: 73.8%
[15]
  viability, T/C: 69.5%
[16]
  viability, T/C: 65%
[17]
  viability, T/C: 81.4%
[18]
  viability, T/C: 68.6%
[19]
  viability, T/C: 71.4%
[20]
  viability, T/C: 55.4%
[21]
  viability, T/C: 49.8%
[22]
  viability, T/C: 52.9%
[23]
  viability, T/C: 52%
[24]
  viability, T/C: 55.5%
[25]
  viability, T/C: 52.7%
[26]
  viability, T/C: 53.4%
[27]
  viability, T/C: 52.1%
[28]
  viability, T/C: 55.6%
[29]
  viability, T/C: 48.5%
[30]
  viability, T/C: 53.1%
[31]
  viability, T/C: 41.7%
[32]
  viability, T/C: 63.3%
[33]
  viability, T/C: 48.9%
[34]
  viability, T/C: 57%
[35]
  viability, T/C: 55.2%
[36]
  viability, T/C: 67.3%

## CC(=O)O[C@H]1C(=O)[C@@]2(C)[C@H]([C@H](OC(=O)c3ccccc3)[C@]3(O)C[C@H](OC(=O)[C@H](O)[C@@H](NC(=O)c4ccccc4)c4ccccc4)C(C)=C1C3(C)C)[C@]1(OC(C)=O)CO[C@@H]1C[C@@H]2O + CN(C)c1ccc(Nc2c3ccc(NC(=O)CCN4CCCC4)cc3nc3cc(NC(=O)CCN4CCCC4)ccc23)cc1
Second compound 0.0316 µM
  IC50: > 10 µM
Second compound 0.1 µM
  IC50: > 10 µM
Second compound 0.316 µM
  IC50: > 10 µM
Second compound 1 µM
  IC50: 4.25 µM
Second compound 3.16 µM
  IC50: < 0.0316 µM
Second compound 10 µM
  IC50: < 0.0316 µM
[1]
  viability, T/C: 86.5%
[2]
  viability, T/C: 98.3%
[3]
  viability, T/C: 87.9%
[4]
  viability, T/C: 85.2%
[5]
  viability, T/C: 88%
[6]
  viability, T/C: 80.6%
[7]
  viability, T/C: 70.4%
[8]
  viability, T/C: 82.2%
[9]
  viability, T/C: 65.8%
[10]
  viability, T/C: 79.7%
[11]
  viability, T/C: 69.8%
[12]
  viability, T/C: 69.8%
[13]
  viability, T/C: 67.5%
[14]
  viability, T/C: 65.5%
[15]
  viability, T/C: 57.4%
[16]
  viability, T/C: 54.1%
[17]
  viability, T/C: 67.8%
[18]
  viability, T/C: 54.9%
[19]
  viability, T/C: 52.7%
[20]
  viability, T/C: 52.6%
[21]
  viability, T/C: 57%
[22]
  viability, T/C: 55.9%
[23]
  viability, T/C: 54.4%
[24]
  viability, T/C: 41.7%
[25]
  viability, T/C: 44.4%
[26]
  viability, T/C: 41.9%
[27]
  viability, T/C: 37.2%
[28]
  viability, T/C: 49.5%
[29]
  viability, T/C: 50%
[30]
  viability, T/C: 49.7%
[31]
  viability, T/C: 36.8%
[32]
  viability, T/C: 44.1%
[33]
  viability, T/C: 43.7%
[34]
  viability, T/C: 44.3%
[35]
  viability, T/C: 51.9%
[36]
  viability, T/C: 51.7%
